Test results as given in patent US9856232B1, “Dihydropyrimidinone derivatives” (KING SAUD UNIVERSITY, priority 2017, dated 2018).
Marks after values point to notes of the source that are not given here.

Columns and labels:
[1] = system: gastric wall mucus in stomach tissue, change induced by 80% ethanol; test: Determination of gastric wall mucus (GWM); type: in vivo, Albino Wistar rats; settings: i.p, 80% ethanol-treated rats, mean ± SE
Method: (§1) Albino Wistar rats of either sex, approximately the same age, weighing 150 to 200 g and fed on a diet of standard chow were used in this study. They were randomly divided into experimental groups of six rats each. Compounds (N-1 to N-18) 12.5, 25, and 50 mg/kg were given orally in the anti-ulcer studies and intraperitoneally for gastric secretion evaluation. The rats were sacrificed, and the stomachs removed and opened along the greater curvature, After washing with saline, the gastric lesions were quantified by a person unaware of the treatments. The animal study protocol was approved by the Research and Ethics Committee of the Experimental Animal Care Society, College of Pharmacy, King Saud University, Riyadh, Saudi Arabia.
Determination of gastric wall mucus (GWM): Gastric wall mucus was determined according to the modified procedure. The glandular segment of the stomach was separated from the rumen of the stomach, weighed, and transferred immediately to 10 mL of 0.1% w/v Alcian blue solution (in […] sucrose solution buffered with […] sodium acetate at pH 5. Tissue was stained for 2 hours in Alcian blue, and excess dye was removed by two successive rinses with 10 mL of […] sucrose, firstly after 15 minutes and then after 45 minutes. Dye complexed with the gastric wall mucus was extracted with 10 ml of […] magnesium chloride which was intermittently shaken for 1 minute at 30 minute intervals for 2 hours. Four milliliters of blue extract were then vigorously shaken with an equal volume of diethyl ether. The resulting emulsion was centrifuged at 4000 r/min for 10 minutes and the absorbance of the aqueous layer was recorded at 580 nm. The quantity of Alcian blue extracted per gram of wet glandular tissue was then calculated. Table 6 provides the effect of compounds on the change in gastric wall mucus in stomach tissue induced by 80% ethanol (mean±SE).

[2] = system: gastric mucosal non-protein sulfhydryls, induced by 80% ethanol; test: Estimation of non-protein sulfhydryls (NP-SH); type: in vivo, Albino Wistar rats; settings: stomach tissue, 80% ethanol-treated rats, mean ± SE
Method: as §1
Estimation of non-protein sulfhydryls (NP_SH): Gastric mucosal non-protein sulfhydryls were measured according to the method. The glandular part of the stomach was homogenized in ice-cold 0.02 mmol/L ethylenediaminetetraacetic acid (EDTA). Aliquots of 5 mL of the homogenates were mixed in 15 mL test tubes with 4 mL of distilled water and 1 mL of 50% trichloroacetic acid (TCA). The tubes were shaken intermittently for 10 minutes and centrifuged at 3000 r/min. Two milliliters of supernatant were mixed with 4 mL of 0.4 mol/L Tris buffer at pH 8.9. Then 0.1 ML of 5, 5′-dithio-bis (2-nitrobenzoic acid) (DTNB) was added and the sample was shaken. The absorbance was measured within 5 minutes of DTNB addition at 412 nm against a reagent blank.

[3] = system: gastric mucosa of rats treated with 80% Ethanol; test: Histopathological evaluation of gastric tissue; type: in vivo, Albino Wistar rats; settings: 50 mg/kg; FIG. 15B-15F
Method: Histopathological evaluation: Gastric tissue samples were fixed in neutral buffered formalin for 24 hours. Sections of gastric tissue were histopathologically examined to study the ulcerogenic and/or anti-ulcerogenic activity of compounds (N-3, N-8, N-11, and N-15). The tissues were fixed in 10% buffered formalin and processed using a VIP tissue processor. The processed tissues were embedded in paraffin blocks and sections about […] thick were cut using an American optical rotary microtome. These sections were stained with haematoxylin and eosin using routine procedures. The slides were examined microscopically for pathomorphological changes such as congestion, hemorrhage, edema, and erosions using an arbitrary scale for severity assessment of these changes (FIGS. 3-14).

[4] = system: Gastric lesions induced by necrotizing agents (80% ethanol, 0.2 mol/L NaOH or 25% NaCl); test: Gastric lesions induced by necrotizing agents (cytoprotection); type: in vivo, Albino Wistar rats; settings: i.p, 30 min before necrotizing agent, mean ± SE
[5] = system: Hypothermic restraint stress-induced intraluminal bleeding and gastric lesion; test: Hypothermic restraint stress-induced ulcers; type: in vivo, Albino Wistar rats; set-up: Gastric Lesion Ulcer Index: scale not given here; settings: hypothermic restraint 3 h, mean ± SE
[6] = system: Indomethacin-induced gastric mucosal lesions; test: Gastric lesions induced by Indomethacin; type: in vivo, Albino Wistar rats; set-up: scale not given here; settings: i.p, 30 min before Indomethacin 30 mg/kg, mean ± SE
Excerpt: as §1, with “Compounds (N-1 to N-18) 12.5, 25, and 50 mg/kg were given orally in the anti-ulcer studies and intraperitoneally for gastric secretion evaluation.” left out
Gastric lesions induced by Indomethacin: Indomethacin was suspended in 1.0% carboxymethylcellulose (CMC) in water (6 mg/mL) and administered orally to the 36 hour fasted rats at a dose of 30 mg/kg body weight. Control rats were treated similarly with an equivalent amount of vehicle. […] The animals were sacrificed 6 hours after treatment. The stomachs were excised, rinsed with normal saline and examined for ulceration. Table 3 provides the effect of compounds on Indomethacin-induced gastric mucosal lesions (mean±SE).

mouse = test: in vivo; settings: 24 h
Excerpt: (§2) At the end of the study period, expired animals were counted for the calculation of LD50. The following arithmetic method from Karber (Arch. Exptl. Pathol. Pharmakol, […], 162, 480-483) was used for the determination of LD50: LD50=LD100−Σ×(a×b)/n
(§3) wherein n=total number of animals in a group; a=the difference between two successive doses of administered extract/substance; b=the average number of dead animals in two successive doses; and LD100=lethal dose causing the 100% death of all test animals.
(§4) Table 8 provides the LD50 values of the compounds determined by the Karber method.

in vivo = settings: mouse
Excerpt: as §2, §3, §4

SMILES	Gastric Wall Mucus ([1]; 12.5 mg/kg)	Gastric Wall Mucus ([1]; 25 mg/kg)	Gastric Wall Mucus ([1]; 50 mg/kg)	NP-SH ([2]; dose 12.5)	NP-SH ([2]; dose 25)	NP-SH ([2]; dose 50)	Gastric section, effect on gastric mucosa (histology) [3]	Ulcer Index, 0.2 mol/L NaOH ([4]; 12.5 mg/kg)	Ulcer Index, 25% NaCl ([4]; 12.5 mg/kg)	Ulcer Index, 80% EtOH ([4]; 12.5 mg/kg)	Ulcer Index, 0.2 mol/L NaOH ([4]; 25 mg/kg)	Ulcer Index, 25% NaCl ([4]; 25 mg/kg)	Ulcer Index, 80% EtOH ([4]; 25 mg/kg)	Ulcer Index, 0.2 mol/L NaOH ([4]; 50 mg/kg)	Ulcer Index, 25% NaCl ([4]; 50 mg/kg)	Ulcer Index, 80% EtOH ([4]; 50 mg/kg)	Gastric Lesion Ulcer Index ([5]; 12.5 mg/kg)	Intraluminal Bleeding Score ([5]; 12.5 mg/kg)	Gastric Lesion Ulcer Index ([5]; 50 mg/kg)	Intraluminal Bleeding Score ([5]; 50 mg/kg)	further results
CN(C)c1ccc(C2NC(=O)NC=C2C(=O)c2ccc(N3CCCCC3)cc2)cc1 (centres unmarked) [Compound N-11, 4-(4-Dimethylaminophenyl)-5-[4-(piperidin-1-yl)benzoyl]-3,4-dihydropyrimidin-2(1H)-one]	192.87 ± 12.84^b μg/g	224.88 ± 4.64*^b μg/g	217.36 ± 3.31**^b μg/g	2.93 ± 0.11^b nmol/g	3.40 ± 0.18^b nmol/g	4.35 ± 0.11***^b nmol/g	intact normal mucosa	6.33 ± 0.42	6.00 ± 0.36	7.16 ± 0.30	3.66 ± 0.21	4.83 ± 0.40	6.16 ± 0.30	3.66 ± 0.33	3.83 ± 0.30	4.83 ± 0.30	29.83 ± 1.51	3.66 ± 0.33	21.00 ± 0.51	2.00 ± 0.36	Gastric Lesion Ulcer Index ([5]; 75 mg/kg): 29.00 ± 1.21; Intraluminal Bleeding Score ([5]; 75 mg/kg): 2.66 ± 0.33; Ulcer Index, indomethacin-induced gastric mucosal lesions ([6]; 12.5 mg/kg): 33.00 ± 1.03; Ulcer Index, indomethacin-induced gastric mucosal lesions ([6]; 25 mg/kg): 30.66 ± 1.28; Ulcer Index, indomethacin-induced gastric mucosal lesions ([6]; 50 mg/kg): 28.31 ± 1.78
O=C1NC=C(C(=O)c2ccc(N3CCCCC3)cc2)C(c2ccc([N+](=O)[O-])cc2)N1 (centres unmarked) [Compound N-3, 4-(4-Nitrophenyl)-5-[4-(piperidin-1-yl)benzoyl]-3,4-dihyropyrimidin-2(1H)-one]	242.08 ± 4.03*^b μg/g	241.66 ± 6.91**^b μg/g	256.18 ± 8.39***^b μg/g	3.15 ± 0.20^b nmol/g	4.23 ± 0.23**^b nmol/g	4.56 ± 0.17***^b nmol/g	intact mucosa with mild ulceration	4.50 ± 0.22.***	5.16 ± 0.47	6.83 ± 0.30	2.66 ± 0.33	2.83 ± 0.30	4.16 ± 0.30	1.83 ± 0.40	1.66 ± 0.33	3.00 ± 0.36	24.16 ± 1.70	2.83 ± 0.30	13.83 ± 0.60	1.16 ± 0.30	Gastric Lesion Ulcer Index ([5]; 25 mg/kg): 17.66 ± 0.76; Intraluminal Bleeding Score ([5]; 25 mg/kg): 1.50 ± 0.22; Dead (of 10 animals) (mouse; 5 mg/kg): 0; Dead (of 10 animals) (mouse; 25 mg/kg): 0; Dead (of 10 animals) (mouse; 50 mg/kg): 2; Dead (of 10 animals) (mouse; 100 mg/kg): 5; Dead (of 10 animals) (mouse; 200 mg/kg): 8; Dead (of 10 animals) (mouse; 300 mg/kg): 10; LD50 at 24 h (in vivo): 125 mg/kg; Ulcer Index, indomethacin-induced gastric mucosal lesions ([6]; 12.5 mg/kg): 29.83 ± 1.66; Ulcer Index, indomethacin-induced gastric mucosal lesions ([6]; 25 mg/kg): 20.50 ± 1.52; Ulcer Index, indomethacin-induced gastric mucosal lesions ([6]; 50 mg/kg): 12.66 ± 1.28
COc1ccccc1C1NC(=O)NC=C1C(=O)c1ccc(N2CCCCC2)cc1 (centres unmarked) [Compound N-8, 4-(2-Methoxyphenyl)-5-[4-(piperidin-1-yl)benzoyl]-3,4-dihydropyrimidin-2(1H)-one]	206.39 ± 7.18^b μg/g	212.00 ± 6.40^b μg/g	244.65 ± 5.36**^b μg/g	3.49 ± 0.16^b nmol/g	3.61 ± 0.12^b nmol/g	4.61 ± 0.27**^b nmol/g	intact normal mucosa	6.66 ± 0.33	6.00 ± 0.25	7.00 ± 0.36	5.33 ± 0.71	5.00 ± 0.44	6.50 ± 0.42	3.83 ± 0.30	3.33 ± 0.30	5.83 ± 0.30	29.83 ± 1.50	3.50 ± 0.42	18.66 ± 0.55	2.50 ± 0.42	Gastric Lesion Ulcer Index ([5]; 25 mg/kg): 27.66 ± 1.60; Intraluminal Bleeding Score ([5]; 25 mg/kg): 3.33 ± 0.21; Dead (of 10 animals) (mouse; 5 mg/kg): 0; Dead (of 10 animals) (mouse; 25 mg/kg): 2; Dead (of 10 animals) (mouse; 50 mg/kg): 6; Dead (of 10 animals) (mouse; 100 mg/kg): 9; Dead (of 10 animals) (mouse; 200 mg/kg): 10; Dead (of 10 animals) (mouse; 300 mg/kg): 10; LD50 at 24 h (in vivo): 55.5 mg/kg; Ulcer Index, indomethacin-induced gastric mucosal lesions ([6]; 12.5 mg/kg): 33.00 ± 1.52; Ulcer Index, indomethacin-induced gastric mucosal lesions ([6]; 25 mg/kg): 29.50 ± 1.58; Ulcer Index, indomethacin-induced gastric mucosal lesions ([6]; 50 mg/kg): 28.66 ± 1.45
